Measured values published in patent US12559529B2, “NPY2 receptor agonists” (Boehringer Ingelheim International GmbH, priority 2019, dated 2026).
*1 amine or outer side, *2 acyl side, *3 side chain or, on linkers, in order; H or OH if unused. Where a SMILES comes first, the peptide text is derived from it. Side-chain parts run from the residue outwards. The star is where a group is joined. C18 diacid = O=C(O)CCCCCCCCCCCCCCCCC(=O)*; γGlu = O=C(O)[C@H](CCC(=O)[*:2])N[*:1]; Isovaleryl = CC(C)CC(=O)*; AEEA = NCCOCCOCC(=O)O

Target: T1, Human Neuropeptide Y2 Receptor (Homo sapiens, UniProt P49146)
T1 construct: purchased CHEMICON HTS066M
T1 sequence (P49146 1-381): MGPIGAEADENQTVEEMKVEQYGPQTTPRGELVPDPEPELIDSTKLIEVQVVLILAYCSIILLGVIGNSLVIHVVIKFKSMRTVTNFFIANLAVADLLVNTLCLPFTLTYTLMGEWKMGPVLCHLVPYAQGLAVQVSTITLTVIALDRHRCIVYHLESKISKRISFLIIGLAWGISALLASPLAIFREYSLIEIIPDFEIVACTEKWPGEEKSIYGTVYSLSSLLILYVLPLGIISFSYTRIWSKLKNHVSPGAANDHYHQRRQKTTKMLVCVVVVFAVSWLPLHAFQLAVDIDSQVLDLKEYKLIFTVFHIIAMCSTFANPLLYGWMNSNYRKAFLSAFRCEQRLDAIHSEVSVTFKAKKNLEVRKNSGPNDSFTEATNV
Assay: Radioligand binding competition assay (RLB)
Settings: Table 3; human 125I-PYY (1-36) 0.02 nM, Y2 receptor membranes; read-out: Ki
Method in brief: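 IC50 values come from nonlinear regression of sigmoidal dose-response curves of filter-bound radioactivity. Peptides competed with radioligand at human Y2 receptor membranes (0.5 μg protein/well) for 2 h at room temperature in pH 7.4 HEPES buffer containing Mg2+, Ca2+ and 0.2% ovalbumin.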

Row | Structure (SMILES) | Ki [nM]
1 | CC[C@H](C)[C@H](NC(=O)[C@H](CCC(=O)O)NC(=O)[C@H](CCC(=O)O)NC(=O)[C@@H]1CCCN1C(=O)[C@H](CO)NC(=O)[C@H](C)NC(=O)[C@H](CC(=O)O)NC(=O)[C@H](CCC(=O)O)NC(=O)[C@@H]1CCCN1C(=O)[C@@H]1CCCN1C(=O)[C@H](CCCCNC(=O)COCCOCCNC(=O)COCCOCCNC(=O)CC[C@H](NC(=O)CCCCCCCCCCCCCCCCC(=O)O)C(=O)O)NC(=O)[C@H](CCC(=O)O)NC(=O)[C@@H]1CCCN1C(=O)[C@H](C)NC(=O)CC(C)C)C(=O)N[C@@H](CCC(N)=O)C(=O)N[C@@H](CCCNC(=N)N)C(=O)N[C@@H](Cc1ccc(O)cc1)C(=O)N[C@@H](Cc1ccc(O)cc1)C(=O)N[C@H](C(=O)N[C@@H](CO)C(=O)N[C@@H](CC(C)C)C(=O)N[C@@H](CCCNC(=N)N)C(=O)N[C@@H](Cc1c[nH]cn1)C(=O)N[C@@H](Cc1ccc(O)cc1)C(=O)N[C@@H](Cc1ccc(O)cc1)C(=O)N[C@@H](CC(N)=O)C(=O)N[C@@H](Cc1c[nH]c2ccccc12)C(=O)N[C@@H](CC(C)C)C(=O)N[C@H](C(=O)N[C@@H](CCCNC(=N)N)C(=O)N[C@@H](CCC(N)=O)C(=O)N[C@@H](CCCNC(=N)N)C(=O)N[C@@H](Cc1ccc(O)cc1)C(N)=O)[C@@H](C)O)C(C)C [Compound 61, N{alpha-4}-(3-methylbutanoyl)-N{epsilon-7}-[2-(2-{2-[2-(2-{2-[(4S)-4-carboxy-4-(17-carboxyheptadecanamido)butanamido]ethoxy}ethoxy)acetamido]ethoxy}ethoxy)acetamido]-[4A,7K,9P,17I,18Q,22V,28Y,30W,31L]hPYY (4-36)] | 0.4
2 | CC[C@H](C)[C@H](NC(=O)[C@H](CCC(=O)O)NC(=O)[C@@H](NC(=O)[C@H](Cc1ccc(O)cc1)NC(=O)[C@H](Cc1ccc(O)cc1)NC(=O)[C@H](CCCNC(=N)N)NC(=O)[C@H](CCC(N)=O)NC(=O)[C@H](CC(C)C)NC(=O)[C@H](CCC(=O)O)NC(=O)[C@H](CCC(=O)O)NC(=O)[C@@H]1CCCN1C(=O)[C@H](CO)NC(=O)[C@H](C)NC(=O)[C@H](CC(=O)O)NC(=O)[C@H](CCC(=O)O)NC(=O)[C@H](CCC(=O)O)NC(=O)[C@@H]1CCCN1C(=O)[C@H](CCCCNC(=O)COCCOCCNC(=O)COCCOCCNC(=O)CC[C@H](NC(=O)CCCCCCCCCCCCCCCCC(=O)O)C(=O)O)NC(=O)[C@H](CCC(=O)O)NC(=O)[C@@H]1CCCN1C(=O)[C@H](C)NC(=O)CC(C)C)C(C)C)C(=O)N[C@@H](CCCNC(=N)N)C(=O)N[C@@H](Cc1c[nH]cn1)C(=O)N[C@@H](Cc1ccc(O)cc1)C(=O)N[C@@H](Cc1ccc(O)cc1)C(=O)N[C@@H](CC(N)=O)C(=O)N[C@@H](Cc1c[nH]c2ccccc12)C(=O)N[C@@H](CC(C)C)C(=O)N[C@H](C(=O)N[C@@H](CCCNC(=N)N)C(=O)N[C@@H](CCC(N)=O)C(=O)N[C@@H](CCCNC(=N)N)C(=O)N[C@@H](Cc1ccc(O)cc1)C(N)=O)[C@@H](C)O [Compound 65, N{alpha-4}-(3-methylbutanoyl)-N{epsilon-7}-[2-(2-{2-[2-(2-{2-[(4S)-4-carboxy-4-(17-carboxyheptadecanamido)butanamido]ethoxy}ethoxy)acetamido]ethoxy}ethoxy)acetamido]-[4A,7K,9E,18Q,22V,23E,24I,28Y,30W,31L]hPYY (4-36)] | 1.02
3 | CC(C)CC(=O)N[C@@H](C)C(=O)N1CCC[C@H]1C(=O)N[C@@H](CCC(=O)O)C(=O)N[C@@H](CCCCNC(=O)COCCOCCNC(=O)COCCOCCNC(=O)CC[C@H](NC(=O)CCCCCCCCCCCCCCCCC(=O)O)C(=O)O)C(=O)N1CCC[C@H]1C(=O)N[C@@H](CCC(=O)O)C(=O)N[C@@H](CCC(=O)O)C(=O)N[C@@H](CCC(=O)O)C(=O)N[C@@H](C)C(=O)N[C@@H](CO)C(=O)N1CCC[C@H]1C(=O)N[C@@H](CCC(=O)O)C(=O)N[C@@H](CCC(=O)O)C(=O)N[C@@H](CC(C)C)C(=O)N[C@@H](CCC(N)=O)C(=O)N[C@@H](C)C(=O)N[C@@H](Cc1ccc(O)cc1)C(=O)N[C@@H](Cc1ccc(O)cc1)C(=O)N[C@H](C(=O)N[C@@H](CO)C(=O)N[C@@H](CC(C)C)C(=O)N[C@@H](CCCNC(=N)N)C(=O)N[C@@H](Cc1c[nH]cn1)C(=O)N[C@@H](Cc1ccc(O)cc1)C(=O)N[C@@H](Cc1ccc(O)cc1)C(=O)N[C@@H](CC(N)=O)C(=O)N[C@@H](Cc1c[nH]c2ccccc12)C(=O)N[C@@H](CC(C)C)C(=O)N[C@H](C(=O)N[C@@H](CCCNC(=N)N)C(=O)N[C@@H](CCC(N)=O)C(=O)N[C@@H](CCCNC(=N)N)C(=O)N[C@@H](Cc1ccc(O)cc1)C(N)=O)[C@@H](C)O)C(C)C [Compound 68, N{alpha-4}-(3-methylbutanoyl)-N{epsilon-7}-[2-(2-{2-[2-(2-{2-[(4S)-4-carboxy-4-(17-carboxyheptadecanamido)butanamido]ethoxy}ethoxy)acetamido]ethoxy}ethoxy)acetamido]-[4A,7K,9E,11E,18Q,19A,22V,28Y,30W,31L]hPYY (4-36)] (Isovaleryl-APEK([AEEA-AEEA-γGlu-C18 diacid])PEEEASPEELQAYYVSLRHYYNWLTRQRY-NH2) | 8.47

Further lines, results first:

Row | Ki [nM] | Structure (SMILES)
4 | 3.13 | CC(C)CC(=O)N[C@@H](C)C(=O)N1CCC[C@H]1C(=O)N[C@@H](CCC(=O)O)C(=O)N[C@@H](CCCCNC(=O)COCCOCCNC(=O)COCCOCCNC(=O)CC[C@H](NC(=O)CCCCCCCCCCCCCCCCC(=O)O)C(=O)O)C(=O)N1CCC[C@H]1C(=O)N[C@@H](CCC(=O)O)C(=O)N[C@@H](CCC(=O)O)C(=O)N[C@@H](CC(=O)O)C(=O)N[C@@H](C)C(=O)N[C@@H](CO)C(=O)N1CCC[C@H]1C(=O)N[C@@H](CCC(=O)O)C(=O)N[C@@H](CCC(=O)O)C(=O)N[C@@H](CC(C)C)C(=O)N[C@@H](CCC(N)=O)C(=O)N[C@@H](CCCNC(=N)N)C(=O)N[C@@H](Cc1ccc(O)cc1)C(=O)N[C@@H](Cc1ccc(O)cc1)C(=O)N[C@H](C(=O)N[C@@H](CO)C(=O)N[C@@H](CC(C)C)C(=O)N[C@@H](CCCNC(=N)N)C(=O)N[C@@H](C)C(=O)N[C@@H](Cc1ccc(O)cc1)C(=O)N[C@@H](Cc1ccc(O)cc1)C(=O)N[C@@H](CC(N)=O)C(=O)N[C@@H](Cc1c[nH]c2ccccc12)C(=O)N[C@@H](CC(C)C)C(=O)N[C@H](C(=O)N[C@@H](CCCNC(=N)N)C(=O)N[C@@H](CCC(N)=O)C(=O)N[C@@H](CCCNC(=N)N)C(=O)N[C@@H](Cc1ccc(O)cc1)C(N)=O)[C@@H](C)O)C(C)C [Compound 63, N{alpha-4}-(3-methylbutanoyl)-N{epsilon-7}-[2-(2-{2-[2-(2-{2-[(4S)-4-carboxy-4-(17-carboxyheptadecanamido)butanamido]ethoxy}ethoxy)acetamido]ethoxy}ethoxy)acetamido]-[4A,7K,9E,18Q,22V,26A,28Y,30W,31L]hPYY (4-36)]
5 | 4.37 | CC(C)CC(=O)N[C@@H](C)C(=O)N1CCC[C@H]1C(=O)N[C@@H](CCC(=O)O)C(=O)N[C@@H](CCCCNC(=O)COCCOCCNC(=O)COCCOCCNC(=O)CC[C@H](NC(=O)CCCCCCCCCCCCCCCCC(=O)O)C(=O)O)C(=O)N1CCC[C@H]1C(=O)N[C@@H](CCC(=O)O)C(=O)N[C@@H](CCC(=O)O)C(=O)N[C@@H](CC(=O)O)C(=O)N[C@@H](CO)C(=O)N[C@@H](C)C(=O)N1CCC[C@H]1C(=O)N[C@@H](CCC(=O)O)C(=O)N[C@@H](CCC(=O)O)C(=O)N[C@@H](CC(C)C)C(=O)N[C@@H](CCC(N)=O)C(=O)N[C@@H](CCCNC(=N)N)C(=O)N[C@@H](Cc1ccc(O)cc1)C(=O)N[C@@H](Cc1ccc(O)cc1)C(=O)N[C@H](C(=O)N[C@@H](CO)C(=O)N[C@@H](CC(C)C)C(=O)N[C@@H](CCCNC(=N)N)C(=O)N[C@@H](Cc1c[nH]cn1)C(=O)N[C@@H](Cc1ccc(O)cc1)C(=O)N[C@@H](Cc1ccc(O)cc1)C(=O)N[C@@H](CC(N)=O)C(=O)N[C@@H](Cc1c[nH]c2ccccc12)C(=O)N[C@@H](CC(C)C)C(=O)N[C@H](C(=O)N[C@@H](CCCNC(=N)N)C(=O)N[C@@H](CCC(N)=O)C(=O)N[C@@H](CCCNC(=N)N)C(=O)N[C@@H](Cc1ccc(O)cc1)C(N)=O)[C@@H](C)O)C(C)C [Compound 67, N{alpha-4}-(3-methylbutanoyl)-N{epsilon-7}-[2-(2-{2-[2-(2-{2-[(4S)-4-carboxy-4-(17-carboxyheptadecanamido)butanamido]ethoxy}ethoxy)acetamido]ethoxy}ethoxy)acetamido]-[4A,7K,9E,12S,13A,18Q,22V,28Y,30W,31L]hPYY (4-36)]
6 | 5.74 | CC(C)CC(=O)N[C@@H](C)C(=O)N1CCC[C@H]1C(=O)N[C@@H](CCC(=O)O)C(=O)N[C@@H](CCCCNC(=O)COCCOCCNC(=O)COCCOCCNC(=O)CC[C@H](NC(=O)CCCCCCCCCCCCCCCCC(=O)O)C(=O)O)C(=O)N1CCC[C@H]1C(=O)N[C@@H](CCC(=O)O)C(=O)N[C@@H](CCC(=O)O)C(=O)N[C@@H](CC(=O)O)C(=O)N[C@@H](CO)C(=O)N[C@@H](CO)C(=O)N[C@@H](C)C(=O)N[C@@H](CCC(=O)O)C(=O)N[C@@H](CCC(=O)O)C(=O)N[C@@H](CC(C)C)C(=O)N[C@@H](CCC(N)=O)C(=O)N[C@@H](CCCNC(=N)N)C(=O)N[C@@H](Cc1ccc(O)cc1)C(=O)N[C@@H](Cc1ccc(O)cc1)C(=O)N[C@H](C(=O)N[C@@H](CO)C(=O)N[C@@H](CC(C)C)C(=O)N[C@@H](CCCNC(=N)N)C(=O)N[C@@H](Cc1c[nH]cn1)C(=O)N[C@@H](Cc1ccc(O)cc1)C(=O)N[C@@H](Cc1ccc(O)cc1)C(=O)N[C@@H](CC(N)=O)C(=O)N[C@@H](Cc1c[nH]c2ccccc12)C(=O)N[C@@H](CC(C)C)C(=O)N[C@H](C(=O)N[C@@H](CCCNC(=N)N)C(=O)N[C@@H](CCC(N)=O)C(=O)N[C@@H](CCCNC(=N)N)C(=O)N[C@@H](Cc1ccc(O)cc1)C(N)=O)[C@@H](C)O)C(C)C [Compound 69, N{alpha-4}-(3-methylbutanoyl)-N{epsilon-7}-[2-(2-{2-[2-(2-{2-[(4S)-4-carboxy-4-(17-carboxyheptadecanamido)butanamido]ethoxy}ethoxy)acetamido]ethoxy}ethoxy)acetamido]-[4A,7K,9E,12S,14A,18Q,22V,28Y,30W,31L]hPYY (4-36)]
